Assay [1] concerns purified collagenase. The experiment in a line: Rate of hydrolysis of DNP-peptide derivatives by purified collagenase (Example 15). The assay is classed as biochemical, tadpole. The settings on record: 5×10^-4 M peptide, purified collagenase 6.2 U/ml, 37° C., pH 7.5; average of three experiments; extraction with ethyl acetate (* compounds: ethyl acetate-n-butanol 1:0.15). On the procedure: (§1) Purified collagenase used in Examples was prepared from cultured media of tadpole skin explants as described in Biochem. Biophs. Acta, 263 564(1972), and non-specific peptidases were prepared by subjecting 5 ml of fresh adult human serum to chromatography on a calibrated Sephadex G-200 superfine gel column equilibrated with 0.05 M Tris-HCl buffer, pH 7.5, containing 0.15 M NaCl and 5 mM CaCl2, and gathering the effluent fractions corresponding to molecular weights of 100,000-180,000.
(§2) Various DNP-peptide derivatives were dissolved in 0.05 M Tris-HCl buffer, pH 7.5, containing 0.15 M NaCl, 5 mM CaCl2 and 0.02% bovine serum albumin to make a concentration of 5×10^-4 M. 0.1 ml Each of the peptide derivative solutions was mixed with an equal volume of purified collagenase (6.2 U/ml) or non-specific peptidases and incubated for various periods at 37° C. After stopping the enzyme reaction by adding 0.5 ml of 1 M HCl, the DNP-peptide fragments released were extracted by vigorous shaking with 1 ml of ethylacetate or ethyl acetate-n-butanol (1:0.15, V/V), and worked up as in Example 12.

Assay [2] concerns non-specific peptidases. The experiment in a line: Rate of hydrolysis of DNP-peptide derivatives by non-specific peptidases (Example 15). The settings on record: 5×10^-4 M peptide, 37° C., pH 7.5; average of three experiments; extraction with ethyl acetate (* compounds: ethyl acetate-n-butanol 1:0.15). Format: biochemical, human. As to the method:
as §1, §2

Assay [3] has as its system collagenase in synovial fluids. In words: Hydrolysis of substrate solutions by synovial fluids from patients; collagenase activity (Example 14). Format: biochemical, human. The settings on record: for OD365/0.1 ml ohr: 0 hr; for OD365/0.1 ml 2hr: 2 hr at 37° C.; for OD365/0.1 ml increment: 2 hr minus 0 hr. On the procedure: (§3) The DNP-peptide fragments released were extracted by vigorous shaking with 1 ml of ethyl acetate-n-butanol (1:0.15, V/V) followed by centrifugation at 3,000-5,000 rpm and room temperature for 10 minutes to separate two layers completely. The degree of hydrolysis was determined by measuring the absorbance of the organic layer at 365 nm.
0.2 ml Each of the substrate (solutions(a) and (b) prepared in Example 12 was mixed with 0.1 ml of synovial fluids from patients with osteoarthritis and rheumatoid arthritis, and incubated for 2 hours at 37° C. After stopping the enzyme reaction by adding 0.5 ml of 1 M hydrochloric acid, the DNP-peptide fragments released were extracted by vigorous shaking with 2 ml of ethyl acetate-n-butanol (1:0.15, V/V), and worked up as in Example 12 to obtain the collagenase activities.

In assay [4] the test system is purified collagenase. The experiment in a line: Time course of hydrolysis of substrate solutions by purified collagenase (Example 12). Format: biochemical, tadpole. As to conditions: for 00365 (absorbance of the organic layer at 365 nm): pH 7.5. On the procedure: as §1
DNP-Pro-Gln-Gly-Ile-Ala-Gly-Gln-D-Arg-OH.CH3 COOH.H2 O (4.96 mg) was neutralized with 0.1N sodium hydroxide, and dissolved in 0.05M tris-HCl buffer, pH 7.5, containing 0.15 M NaCl and 5 m MCaCl2 to make 10 ml of the substrate solution (a) having a concentration of 5×10^-4 M. The substrate solution (b) was also prepared similarly by using DNP-Gln-Gly-Ile-Ala-Gly-Gln-D-Arg-OH.CH3 COOH.H2 O (4.48 mg).
0.9 ml Each of the substrate solutions was diluted with 0.88 ml of 0.05M tris-HCl buffer, pH 7.5, containing 0.15 M NaCl, and 5 m MCaCl2. The resulting solution was mixed with 0.02 ml of purified collagenase, and incubated. 0.2 ml Aliquots of the reaction mixture were taken out at 0, 10, 20, 40, 60 and 120 minutes, and mixed with 0.5 ml of 1M hydrochloric acid for stopping the enzyme reaction.
as §3

[5] abbreviates: synovial fluid of case five, RA.
Where [6] appears, read: synovial fluid of case four, OA.
Setting [7] is: synovial fluid of case three, RA.

Each structure is given as a SMILES string. Non-standard residues stand in square brackets, D forms with d. Residues, ends and D or L forms follow the SMILES beside them. *: point of attachment. Dnp = O=[N+]([O-])c1ccc(*)c([N+](=O)[O-])c1

In the case of `CC(C)C[C@H](NC(=O)CNC(=O)[C@H](CCC(N)=O)NC(=O)[C@@H]1CCCN1c1ccc([N+](=O)[O-])cc1[N+](=O)[O-])C(=O)N[C@@H](C)C(=O)NCC(=O)N[C@@H](CCC(N)=O)C(=O)N[C@H](CCCNC(=N)N)C(=O)O` [Example 4, DNP-Pro-Gln-Gly-Leu-Ala-Gly-Gln-D-Arg-OH] (Dnp-PQGLAGQ[dR]-OH), the “Rate of hydrolysis by Collagenase” value in assay [1] turned out to be 0.243 OD365/hr. Moreover, the “Rate of hydrolysis by non-specific peptidases” value in assay [2] is on record as 0.031 OD365/hr.

For `CC[C@H](C)[C@H](NC(=O)CNC(=O)[C@H](C)NC(=O)[C@@H]1CCCN1c1ccc([N+](=O)[O-])cc1[N+](=O)[O-])C(=O)N[C@@H](C)C(=O)NCC(=O)N[C@@H](CCC(N)=O)C(=O)N[C@H](CCCNC(=N)N)C(=O)O` [Example 5, DNP-Pro-Ala-Gly-Ile-Ala-Gly-Gln-D-Arg-OH] (Dnp-PAGIAGQ[dR]-OH), the “Rate of hydrolysis by Collagenase” value in assay [1] was determined as 0.070 OD365/hr. For the same compound, in assay [2], the “Rate of hydrolysis by non-specific peptidases” value came to 0.010 OD365/hr.

For the compound `CC(C)C[C@H](NC(=O)CNC(=O)[C@H](C)NC(=O)[C@@H]1CCCN1c1ccc([N+](=O)[O-])cc1[N+](=O)[O-])C(=O)N[C@@H](C)C(=O)NCC(=O)N[C@@H](CCC(N)=O)C(=O)N[C@H](CCCNC(=N)N)C(=O)O` [Example 6, DNP-Pro-Ala-Gly-Leu-Ala-Gly-Gln-D-Arg-OH] (Dnp-PAGLAGQ[dR]-OH), the “Rate of hydrolysis by Collagenase” value in assay [1] was 0.120 OD365/hr. Besides, the “Rate of hydrolysis by non-specific peptidases” value in assay [2] came to 0.051 OD365/hr.

For `CC[C@H](C)[C@H](NC(=O)CNC(=O)[C@H](CCC(N)=O)NC(=O)[C@@H]1CCCN1c1ccc([N+](=O)[O-])cc1[N+](=O)[O-])C(=O)N[C@@H](C)C(=O)NCC(=O)N[C@H](CCCNC(=N)N)C(=O)O` [Example 8, DNP-Pro-Gln-Gly-Ile-Ala-Gly-D-Arg-OH] (Dnp-PQGIAG[dR]-OH), in assay [1], the “Rate of hydrolysis by Collagenase” value was determined as 0.157 OD365/hr. Besides, the “Rate of hydrolysis by non-specific peptidases” value in assay [2] is 0.021 OD365/hr.

Turning to `CC[C@H](C)[C@H](NC(=O)CNC(=O)[C@H](CC(C)C)NC(=O)[C@@H]1CCCN1c1ccc([N+](=O)[O-])cc1[N+](=O)[O-])C(=O)N[C@@H](C)C(=O)NCC(=O)N[C@@H](CCC(N)=O)C(=O)N[C@H](CCCNC(=N)N)C(=O)O` [Example 9, DNP-Pro-Leu-Gly-Ile-Ala-Gly-Gln-D-Arg-OH] (Dnp-PLGIAGQ[dR]-OH), in assay [1], the “Rate of hydrolysis by Collagenase” value is on record as 0.276 OD365/hr. Also, in assay [2], the “Rate of hydrolysis by non-specific peptidases” value is recorded as 0 OD365/hr.

With `CC[C@H](C)[C@H](NC(=O)CNC(=O)[C@H](CCC(N)=O)Nc1ccc([N+](=O)[O-])cc1[N+](=O)[O-])C(=O)N[C@@H](C)C(=O)NCC(=O)N[C@@H](CCC(N)=O)C(=O)N[C@H](CCCNC(=N)N)C(=O)O` [Example 10, DNP-Gln-Gly-Ile-Ala-Gly-Gln-D-Arg-OH], the OD365/0.1 ml ohr in assay [3] (setting [5]) was 0.045 OD365/0.1 ml; in assay [3] (setting [6]) it was 0.038 OD365/0.1 ml; in assay [3] (synovial fluid of case one, RA), 0.049 OD365/0.1 ml; in assay [3] (synovial fluid of case six, OA), 0.050 OD365/0.1 ml; in assay [3] (setting [7]) it was 0.050 OD365/0.1 ml; in assay [3] (synovial fluid of case two, OA) it was 0.035 OD365/0.1 ml. Moreover, the “OD365/0.1 ml 2hr” value in assay [3] (setting [5]) worked out at 0.045 OD365/0.1 ml; in assay [3] (setting [6]), 0.040 OD365/0.1 ml; in assay [3] (synovial fluid of case one, RA) it was 0.046 OD365/0.1 ml; in assay [3] (synovial fluid of case six, OA), 0.041 OD365/0.1 ml; in assay [3] (setting [7]), 0.051 OD365/0.1 ml; in assay [3] (synovial fluid of case two, OA), 0.038 OD365/0.1 ml. Moreover, the OD365/0.1 ml increment in assay [3] (setting [5]) worked out at 0.000 OD365/0.1 ml; in assay [3] (setting [6]), 0.002 OD365/0.1 ml; in assay [3] (synovial fluid of case one, RA) it was 0 OD365/0.1 ml; in assay [3] (synovial fluid of case six, OA), 0 OD365/0.1 ml; in assay [3] (setting [7]), 0.001 OD365/0.1 ml; in assay [3] (synovial fluid of case two, OA), 0.003 OD365/0.1 ml. Besides, the “Rate of hydrolysis by Collagenase” value in assay [1] worked out at 0 OD365/hr. Also, the “00365 (absorbance of the organic layer at 365 nm)” value amounted to 0.027 in assay [4] (incubation time 0 min); 0.027 in assay [4] (incubation time 10 min); 0.027 in assay [4] (incubation time 20 min); 0.030 in assay [4] (incubation time 40 min); 0.029 in assay [4] (incubation time 60 min); 0.027 in assay [4] (incubation time 120 min). For the same compound, the “increment of 00365” value in assay [4] (incubation time 10 min) came to 0; in assay [4] (incubation time 20 min) it was 0; in assay [4] (incubation time 40 min) it was 0.002; in assay [4] (incubation time 60 min), 0.002; in assay [4] (incubation time 120 min), 0. Besides, in assay [2], the “Rate of hydrolysis by non-specific peptidases” value is listed as 0 OD365/hr.

Take `CC[C@H](C)[C@H](NC(=O)CNC(=O)[C@H](C)Nc1ccc([N+](=O)[O-])cc1[N+](=O)[O-])C(=O)N[C@@H](C)C(=O)NCC(=O)N[C@@H](CCC(N)=O)C(=O)N[C@H](CCCNC(=N)N)C(=O)O` [Example 11, DNP-Ala-Gly-Ile-Ala-Gly-Gln-D-Arg-OH]: in assay [1], the “Rate of hydrolysis by Collagenase” value came out at 0 OD365/hr. Also, in assay [2], the “Rate of hydrolysis by non-specific peptidases” value came out at 0.016 OD365/hr.

(Values after US4176009A, “Method of measuring collagenase activity” (Ajinomoto Co., Inc., priority 1976, dated 1979).)
